The results in this text go back to patent US11180530B2, “Salt of phenylpropionamide derivative and preparation method therefor” (priority 2017, dated 2021).

Structures are written as SMILES. Where a name gives a salt, the structure may show the parent alone. Read-outs that look alike come from different tables or passages of the source. Where a SMILES comes first, the peptide text is derived from it. [ ]: non-standard residue; d: D form. The star is where a group is joined. Gly(N-(2R-Ph-propyl)) = C[C@@H](CNCC(=O)O)c1ccccc1; Piperidin1yl(4-NH2,4-COOH) = NC1(C(=O)O)CCN(*)CC1

The format of data set [1] is physicochemical. On the procedure: Samples of the compound represented by formula (I) and acetate, hydrochloride, citrate and phosphate of the compound represented by formula (I) were respectively placed open and evenly spread, so that the stability of the samples were investigated under the conditions of room temperature, heating (40° C., 60° C.), illumination (4500Lux) and high humidity (RH75% and RH90%). The sampling period is 20 days.

The format of data set [2] is physicochemical. The protocol:
Samples of acetate, hydrochloride, citrate and phosphate of the compound represented by formula (I) were subjected to a long-term accelerated stability investigation for 6 months under dark and sealed conditions (the inner package is a medicinal low-density polyethylene composite film and the outer package is aluminum foil), humidity (60% RH), temperature (4° C., 25° C.) and with/without nitrogen protection.
This is another data set of the same source.

The mark [3] stands for this setting: 25° C., 60% RH, nitrogen protection, 1 month.
The mark [4] stands for this setting: 25° C., 60% RH, nitrogen protection, 3 months.
[5] abbreviates: 25° C., 60% RH, nitrogen protection, 6 months.
[6] abbreviates: 25° C., 60% RH, nitrogen protection, initial.

Consider `CC(C)C[C@@H](NC(=O)[C@@H](Cc1ccccc1)NC(=O)CNC[C@H](C)c1ccccc1)C(=O)N[C@H](CCCCN)C(=O)N1CCC(N)(C(=O)O)CC1` [Acetate (1:2)] (H-[Gly(N-(2R-Ph-propyl))][dF][dL][dK]-{Piperidin1yl(4-NH2,4-COOH)}), for which, in data set [1] (high temperature), the “Stability (conclusion in words)” value is recorded as “poor stability”. Further, the “acetate (radical) content by ion chromatography” value in data set [1] (high temperature, after the 20-day experiment) is reported as “greatly reduced”.
For `CC(C)C[C@@H](NC(=O)[C@@H](Cc1ccccc1)NC(=O)CNC[C@H](C)c1ccccc1)C(=O)N[C@H](CCCCN)C(=O)N1CCC(N)(C(=O)O)CC1` [Embodiment 11, 4-amino-1-((2R,5R,8R,14R)-2-(4-aminobutyl)-8-benzyl-5-isobutyl-4,7,10-trioxo-14-phenyl-3,6,9,12-tetraazapentadecan-1-acyl)piperidine-4-carboxylic acid] (H-[Gly(N-(2R-Ph-propyl))][dF][dL][dK]-{Piperidin1yl(4-NH2,4-COOH)}), the Purity % in data set [2] (4° C., 1 month) was 99.49%; in data set [2] (4° C., 3 months) it was 99.56%; in data set [2] (4° C., 6 months), 99.57%; in data set [2] (4° C., initial), 99.50%; in data set [2] (setting [3]), 99.50%; in data set [2] (setting [4]) it was 99.51%. In addition, the Purity % in data set [2] (setting [5]) is 99.51%; in data set [2] (setting [6]) it was 99.50%; in data set [2] (25° C., 60% Rh, 1 month), 99.50%; in data set [2] (25° C., 60% Rh, 3 months), 99.52%; in data set [2] (25° C., 60% Rh, 6 months), 99.5%; in data set [2] (25° C., 60% Rh, initial), 99.50%.
For the molecule `CC(C)C[C@@H](NC(=O)[C@@H](Cc1ccccc1)NC(=O)CNC[C@H](C)c1ccccc1)C(=O)N[C@H](CCCCN)C(=O)N1CCC(N)(C(=O)O)CC1` [Embodiment 14, 4-amino-1-((2R,5R,8R,14R)-2-(4-aminobutyl)-8-benzyl-5-isobutyl-4,7,10-trioxo-14-phenyl-3,6,9,12-tetraazapentadecan-1-acyl)piperidine-4-carboxylic acid] (H-[Gly(N-(2R-Ph-propyl))][dF][dL][dK]-{Piperidin1yl(4-NH2,4-COOH)}), the Purity % in data set [1] (4500 Lux, 0 days (initial)) amounted to 99.19%; in data set [1] (4500 Lux, 5 days), 99.15%; in data set [1] (4500 Lux, 10 days), 99.12%; in data set [1] (4500 Lux, 20 days), 99.12%.
`CC(C)C[C@@H](NC(=O)[C@@H](Cc1ccccc1)NC(=O)CNC[C@H](C)c1ccccc1)C(=O)N[C@H](CCCCN)C(=O)N1CCC(N)(C(=O)O)CC1` [Embodiment 13, 4-amino-1-((2R,5R,8R,14R)-2-(4-aminobutyl)-8-benzyl-5-isobutyl-4,7,10-trioxo-14-phenyl-3,6,9,12-tetraazapentadecan-1-acyl)piperidine-4-carboxylic acid] (H-[Gly(N-(2R-Ph-propyl))][dF][dL][dK]-{Piperidin1yl(4-NH2,4-COOH)}): the Purity % in data set [1] (4500 Lux, 0 days (initial)) is reported as 97.39%; in data set [1] (4500 Lux, 5 days) it was 97.29%; in data set [1] (4500 Lux, 10 days) it was 97.28%; in data set [1] (4500 Lux, 20 days), 97.28%.
As for `CC(C)C[C@@H](NC(=O)[C@@H](Cc1ccccc1)NC(=O)CNC[C@H](C)c1ccccc1)C(=O)N[C@H](CCCCN)C(=O)N1CCC(N)(C(=O)O)CC1` [Citrate (1:2)] (H-[Gly(N-(2R-Ph-propyl))][dF][dL][dK]-{Piperidin1yl(4-NH2,4-COOH)}), in data set [1] (high temperature of 60° C.), the “Stability (conclusion in words)” value is given as “degraded greatly”.
For `CC(C)C[C@@H](NC(=O)[C@@H](Cc1ccccc1)NC(=O)CNC[C@H](C)c1ccccc1)C(=O)N[C@H](CCCCN)C(=O)N1CCC(N)(C(=O)O)CC1` [Embodiment 2, 4-amino-1-((2R,5R,8R,14R)-2-(4-aminobutyl)-8-benzyl-5-isobutyl-4,7,10-trioxo-14-phenyl-3,6,9,12-tetraazapentadecan-1-acyl)piperidine-4-carboxylic acid] (H-[Gly(N-(2R-Ph-propyl))][dF][dL][dK]-{Piperidin1yl(4-NH2,4-COOH)}), the Purity % stood at 97.64% in data set [1] (25° C., 5 days); 97.64% in data set [1] (25° C., 10 days); 97.63% in data set [1] (25° C., 20 days); 96.23% in data set [1] (40° C., 5 days); 97.65% in data set [1] (4500 Lux, 0 days (initial)); 96.99% in data set [1] (4500 Lux, 5 days). In addition, the Purity % in data set [1] (4500 Lux, 10 days) is 96.68%; in data set [1] (4500 Lux, 20 days), 96.72%.
Take `CC(C)C[C@@H](NC(=O)[C@@H](Cc1ccccc1)NC(=O)CNC[C@H](C)c1ccccc1)C(=O)N[C@H](CCCCN)C(=O)N1CCC(N)(C(=O)O)CC1` [hydrochloride (1:2)] (H-[Gly(N-(2R-Ph-propyl))][dF][dL][dK]-{Piperidin1yl(4-NH2,4-COOH)}): in data set [1] (illumination and high temperature, 20 days), the “Stability (conclusion in words)” value is recorded as “slightly degraded”.
With `CC(C)C[C@@H](NC(=O)[C@@H](Cc1ccccc1)NC(=O)CNC[C@H](C)c1ccccc1)C(=O)N[C@H](CCCCN)C(=O)N1CCC(N)(C(=O)O)CC1` [Embodiment 6, 4-amino-1-((2R,5R,8R,14R)-2-(4-aminobutyl)-8-benzyl-5-isobutyl-4,7,10-trioxo-14-phenyl-3,6,9,12-tetraazapentadecan-1-acyl)piperidine-4-carboxylic acid] (H-[Gly(N-(2R-Ph-propyl))][dF][dL][dK]-{Piperidin1yl(4-NH2,4-COOH)}), the Purity % in data set [1] (25° C., 5 days) stood at 99.27%; in data set [1] (25° C., 10 days) it was 99.27%; in data set [1] (25° C., 20 days), 99.30%; in data set [1] (40° C., 5 days), 99.03%; in data set [1] (4500 Lux, 0 days (initial)), 99.32%; in data set [1] (4500 Lux, 5 days), 97.13%. Moreover, the Purity % in data set [1] (4500 Lux, 10 days) is given as 95.32%; in data set [1] (4500 Lux, 20 days), 92.39%.
For the molecule `CC(C)C[C@@H](NC(=O)[C@@H](Cc1ccccc1)NC(=O)CNC[C@H](C)c1ccccc1)C(=O)N[C@H](CCCCN)C(=O)N1CCC(N)(C(=O)O)CC1` [Embodiment 3, 4-amino-1-((2R,5R,8R,14R)-2-(4-aminobutyl)-8-benzyl-5-isobutyl-4,7,10-trioxo-14-phenyl-3,6,9,12-tetraazapentadecan-1-acyl)piperidine-4-carboxylic acid] (H-[Gly(N-(2R-Ph-propyl))][dF][dL][dK]-{Piperidin1yl(4-NH2,4-COOH)}), the Purity % in data set [2] (4° C., 1 month) was determined as 99.59%; in data set [2] (4° C., 3 months), 99.58%; in data set [2] (4° C., 6 months) it was 99.60%; in data set [2] (4° C., initial), 99.59%; in data set [2] (setting [3]) it was 99.58%; in data set [2] (setting [4]), 99.51%. The Purity % in data set [2] (setting [5]) is 99.54%; in data set [2] (setting [6]), 99.59%; in data set [2] (25° C., 60% Rh, 1 month), 99.62%; in data set [2] (25° C., 60% Rh, 3 months), 99.61%; in data set [2] (25° C., 60% Rh, 6 months), 99.57%; in data set [2] (25° C., 60% Rh, initial), 99.59%. The Aspect result was “White” in data set [2] (setting [3]); “White” in data set [2] (setting [4]); “White” in data set [2] (setting [5]); “White” in data set [2] (setting [6]); “White” in data set [2] (25° C., 60% Rh, 1 month); “White” in data set [2] (25° C., 60% Rh, 3 months). Also, the Aspect entry is reported as “White” in data set [2] (25° C., 60% Rh, 6 months) and “White” in data set [2] (25° C., 60% Rh, initial).
`CC(C)C[C@@H](NC(=O)[C@@H](Cc1ccccc1)NC(=O)CNC[C@H](C)c1ccccc1)C(=O)N[C@H](CCCCN)C(=O)N1CCC(N)(C(=O)O)CC1` [hydrochloride (1:3)] (H-[Gly(N-(2R-Ph-propyl))][dF][dL][dK]-{Piperidin1yl(4-NH2,4-COOH)}): the “Stability (conclusion in words)” value is listed as “slightly degraded” in data set [1] (illumination condition) and “stable” in data set [1] (other conditions (than illumination)).
Regarding `CC(C)C[C@@H](NC(=O)[C@@H](Cc1ccccc1)NC(=O)CNC[C@H](C)c1ccccc1)C(=O)N[C@H](CCCCN)C(=O)N1CCC(N)(C(=O)O)CC1` [Embodiment 4, 4-amino-1-((2R,5R,8R,14R)-2-(4-aminobutyl)-8-benzyl-5-isobutyl-4,7,10-trioxo-14-phenyl-3,6,9,12-tetraazapentadecan-1-acyl)piperidine-4-carboxylic acid] (H-[Gly(N-(2R-Ph-propyl))][dF][dL][dK]-{Piperidin1yl(4-NH2,4-COOH)}), the Purity % is reported as 97.56% in data set [1] (25° C., 5 days); 97.44% in data set [1] (25° C., 10 days); 97.28% in data set [1] (25° C., 20 days); 86.31% in data set [1] (40° C., 5 days); 97.70% in data set [1] (4500 Lux, 0 days (initial)); 95.83% in data set [1] (4500 Lux, 5 days). In addition, the Purity % in data set [1] (4500 Lux, 10 days) was found to be 94.91%; in data set [1] (4500 Lux, 20 days), 92.17%.
In the case of `CC(C)C[C@@H](NC(=O)[C@@H](Cc1ccccc1)NC(=O)CNC[C@H](C)c1ccccc1)C(=O)N[C@H](CCCCN)C(=O)N1CCC(N)(C(=O)O)CC1` [Embodiment 12, 4-amino-1-((2R,5R,8R,14R)-2-(4-aminobutyl)-8-benzyl-5-isobutyl-4,7,10-trioxo-14-phenyl-3,6,9,12-tetraazapentadecan-1-acyl)piperidine-4-carboxylic acid] (H-[Gly(N-(2R-Ph-propyl))][dF][dL][dK]-{Piperidin1yl(4-NH2,4-COOH)}), the Purity % came to 96.93% in data set [1] (25° C., 5 days); 96.80% in data set [1] (25° C., 10 days); 96.97% in data set [1] (25° C., 20 days); 97.04% in data set [1] (4500 Lux, 0 days (initial)); 96.65% in data set [1] (4500 Lux, 5 days); 96.63% in data set [1] (4500 Lux, 10 days). The Purity % in data set [1] (4500 Lux, 20 days) came out at 96.77%.
